“And” between values parts separate entries of the source, which are not always exact repeats. Identical values can stand only once. Like-named read-outs stand apart in the source and are kept apart here.
Tests used:
[1] = Spectroscopic measurements of the dyes in four solvents (Test Example 2); assay type: physicochemical; settings: for quantum yield in water relative to that in ethanol: water versus ethanol
Procedure: The two-photon dyes prepared in Example 1 and Comparative Example 1 were dissolved in four solvents (hexane, DMF, ethanol and water), respectively. The one-photon maximum absorption wavelength (λmax), one-photon maximum emission wavelength (λ^f1max), two-photon maximum absorption wavelength (λ^(2)max), quantum yield (Φ) and two-photon absorption efficiency (δmax) of the solutions were measured, and the results are shown in Table 1. The absorption spectra were measured on a Hewlett-Packard 8453 diode array spectrophotometer. The fluorescence spectra were obtained with an Aminco Bowman series 2 luminescence spectrometer. The two-photon absorption efficiency means a maximum value of a two-photon cross section (δTPA). The two-photon cross section can be calculated by the following equation 1: […]
wherein the subscripts s and r represent sample and reference molecules, respectively, δ represents the two-photon cross section, S represents the strength of signals collected by a CCD detector, Φ represents the fluorescence quantum efficiency, φ represents the total fluorescence collection efficiency of an experimental system, c represents the number density of the molecules within each of the solutions, and δr represents the two-photon cross section of reference molecules.

[2] = Reflection tests of polarity of solvents, fluorescence spectra (Test Example 1); assay type: physicochemical
Procedure: Time-resolved fluorescence (TRF) spectra of the two-photon dyes prepared in Comparative Example 1 and Example 1 were measured to examine changes in the one-photon fluorescence wavelength of the dyes according to the polarity of solvents. In this test, hexane, DMF, ethanol and water were used as solvents. The polarity of the solvents increases in the order: hexane<DMF<ethanol<water. […] Since Laurdan has a long hydrocarbon tail, the dye molecules surrounded by the adjacent dye molecules were placed in a hydrophobic environment, and as a result, a blue shift was observed. […] From these observations, it can be concluded that Laurdan is not suitable for use in real-time imaging of lipid rafts.
On the other hand, time-resolved fluorescence (TRF) spectra of the two-photon dye (TPD4) prepared in Example 4 were measured to examine changes in the one-photon fluorescence wavelength of the dye according to the polarity of solvents. In this test, THF, DMF, ethanol and ethanol/water were used as solvents. The polarity of the solvents increases in the order: THF<DMF<ethanol<ethanol/water. […] As mentioned previously, the reason for this is because the fluorescence quantum yield and fluorescence lifetime of TPD4 in a hydrophilic environment were decreased drastically. Therefore, lipid rafts can be directly observed due to the difference in fluorescence intensity.

[3] = Reflection tests of polarity of liposomes (Test Example 3); assay type: physicochemical; settings: for fluorescence wavelength (peaks): DOPC liposomes; for maximum fluorescence wavelength: DPPC liposomes
Procedure: Three kinds of liposomes having different fluidity (polarity) were prepared to examine how much the two-photon dyes prepared in Example 1 and Comparative Example 1 reflected the polarity of the liposomes. Specifically, DOPC liposomes were prepared from 1,2-dioleoyl-sn-glycerol-3-phosphocholine (DOPC) having unsaturated fatty acids so as to reflect the fluidity of phospholipids of plasma membranes. The DOPC liposomes were relatively fluid. DOPC/Sphingo/Chol liposomes were composed of DOPC, sphingomyelin and cholesterol in the same ratio so as to simultaneously reflect phospholipids and lipid rafts. DPPC liposomes were prepared from 1,2-dipalmitoyl-sn-glycerol-3-phosphocholine (DPPC) so as to reflect lipid rafts. The DPPC liposomes were in a gel state and had lowest fluidity. Next, the three kinds of liposomes were stained with Laurdan and TPD1, and their spectral properties were examined. Referring to FIGS. 3a (Laurdan) and 3b (TPD1), the maximum one-photon absorption wavelengths of Laurdan and TPD1 were in the range of 360-395 nm, regardless of the kind of the liposomes. However, the fluorescence intensity of the liposomes increased with the hydrophobicity of the liposomes in the order: DOPC<DOPC/Sphingo/Chol<DPPC. […] Referring to FIG. 3c, the maximum fluorescence wavelength of Laurdan in DPPC is 440 nm and the fluorescence spectrum of Laurdan in DOPC is broader.
In the meanwhile, the fluorescence wavelength bands of Laurdan in DOPC/Sphingo/Chol and DPPC were confirmed to overlap almost completely. […] In contrast, TPD1 prepared in Example 1 emitted fluorescence of 442 nm in DPPC and fluorescence of 486 nm in DOPC (FIG. 3d). In addition, the fluorescence spectrum of TPD1 in the DOPC/Sphingo/Chol liposomes is broad and almost the same as the sum of the spectra in the DPPC and DOPC liposomes.
On the other hand, the different kinds of liposomes were stained with TPD4 prepared in Example 4, and their fluorescence spectra were examined. Referring to FIG. 4, the fluorescence intensity of the fluid DOPC liposomes (in a hydrophilic environment) was ⅛ of that of the DPPC liposomes and about 1/6.5 of that of the DOPC/Sphingo/Chol liposomes.

[4] = cited from earlier work
[5] = tested on: A431 cells; assay: Cytotoxicity test, MTT assay (Test Example 7); assay type: cell-based; settings: 1×10^−5 M, DMSO (1%) reference, incubation for 6 hours
Excerpt: To evaluate whether the two-photon dyes of the present invention are cytotoxic or not, MTT assay was done on the two-photon dye prepared in Example 1. Specifically, A431 cells were stained with TPD1 (1×10^−5 M) and DMSO (1%) was used as a reference solvent. […] Therefore, it can be concluded that the two-photon dye of the present invention is suitable for imaging of living cells.

## CCCCCCCCCCCC(=O)c1ccc2cc(N(C)C)ccc2c1 [Laurdan, reference compound]
[1]; solvent DMF
  Φ (quantum yield): 1.00
  δmax (two-photon absorption efficiency): 50 GM
  λ^(2)max (two-photon maximum absorption wavelength): 780
  λ^flmax (one-photon maximum emission wavelength): 454
  λmax (one-photon maximum absorption wavelength): 356
[1]; solvent ethanol
  Φ (quantum yield): 1.00
  δmax (two-photon absorption efficiency): 57 GM
  λ^(2)max (two-photon maximum absorption wavelength): 780
  λ^flmax (one-photon maximum emission wavelength): 487
  λmax (one-photon maximum absorption wavelength): 363
[1]; solvent hexane
  Φ (quantum yield): 0.11
  λ^flmax (one-photon maximum emission wavelength): 407
  λmax (one-photon maximum absorption wavelength): 344
[1]; solvent water
  Φ (quantum yield): 0.01
  λ^flmax (one-photon maximum emission wavelength): 431
  λmax (one-photon maximum absorption wavelength): 354
[1]
  quantum yield in water relative to that in ethanol: 1/100
[2]; water
  solubility in water: substantially insoluble in water
  wavelength of light emitted in water: 400-460 nm
[2]; water versus less polar solvents
  maximum fluorescence wavelength in water with the highest polarity: decreased (i.e. blue-shifted)
[3]
  fluorescence wavelength (peaks): 439 nm and 484 nm
  maximum fluorescence wavelength: 440 nm
[4]; cell membranes
  fluorescence emitted in lipid raft domains in a hydrophobic environment: 400 to 460 nm
  fluorescence emitted in phospholipid domains in a hydrophilic environment: 470 to 530 nm
[4]; water
  fluorescence emitted by the precipitate: 450 nm
  solubility in water: barely soluble in water

## CCCCCCCCCCCC(=O)c1ccc2cc(N(C)CC(=O)O)ccc2c1 [TPD1]
[1]
  two-photon absorption efficiency relative to the dye of Comparative Example 1: about three to six times
  quantum yield in water relative to that in ethanol: ¼
[1]; over the solvents
  two-photon absorption efficiency, maximum: 323 GM
  two-photon absorption efficiency, minimum: 153 GM
[1]; solvent DMF
  Φ (quantum yield): 0.36
  δmax (two-photon absorption efficiency): 167 GM
  λ^(2)max (two-photon maximum absorption wavelength): 780
  λ^flmax (one-photon maximum emission wavelength): 446
  λmax (one-photon maximum absorption wavelength): 363
[1]; solvent ethanol
  Φ (quantum yield): 0.43
  δmax (two-photon absorption efficiency): 153 GM
  λ^(2)max (two-photon maximum absorption wavelength): 780
  λ^flmax (one-photon maximum emission wavelength): 494
  λmax (one-photon maximum absorption wavelength): 383
[1]; solvent hexane
  Φ (quantum yield): 0.10
  λ^flmax (one-photon maximum emission wavelength): 404
  λmax (one-photon maximum absorption wavelength): 345
[1]; solvent water
  Φ (quantum yield): 0.11
  δmax (two-photon absorption efficiency): 323 GM
  λ^(2)max (two-photon maximum absorption wavelength): 820
  λ^flmax (one-photon maximum emission wavelength): 522
  λmax (one-photon maximum absorption wavelength): 384
[2]; hexane<DMF<ethanol<water
  maximum fluorescence wavelength as the polarity of the solvents increased: increased
[3]
  fluorescence wavelength (peaks): 486 nm
  maximum fluorescence wavelength: 442 nm
[3]; in all liposomes
  fluorescence intensity relative to Laurdan: 2-5 times
[5]
  cytotoxicity (cell viability, MTT) versus reference solvent: no significant difference in cytotoxicity

## CCCCCCCCCC(=O)/C=C/c1ccc2cc(N(C)CC(=O)OC(C)(C)C)ccc2c1 [TPD4]
[2]; THF<DMF<ethanol<ethanol/water
  fluorescence intensity as the polarity of the solvents increased: reduced drastically
[3]; stained liposomes
  fluorescence intensity of DOPC liposomes relative to DPPC liposomes: ⅛
